Starred links: 1 amine or outer side, 2 acyl side, 3 side chain; linkers in the order of their positions; H or OH if unused. Groups on a side chain read outwards from the residue. No end group written: not given here. *: point of attachment. C18 diacid = O=C(O)CCCCCCCCCCCCCCCCC(=O)*; γGlu = O=C(O)[C@H](CCC(=O)[*:2])N[*:1]; AEEA = NCCOCCOCC(=O)O
T1: Y1 receptor (Homo sapiens, UniProt P25929)
T1 construct: expressed in transfected cells; host or cells: ACTOne HEK-293 cells
T1 sequence (P25929 1-384): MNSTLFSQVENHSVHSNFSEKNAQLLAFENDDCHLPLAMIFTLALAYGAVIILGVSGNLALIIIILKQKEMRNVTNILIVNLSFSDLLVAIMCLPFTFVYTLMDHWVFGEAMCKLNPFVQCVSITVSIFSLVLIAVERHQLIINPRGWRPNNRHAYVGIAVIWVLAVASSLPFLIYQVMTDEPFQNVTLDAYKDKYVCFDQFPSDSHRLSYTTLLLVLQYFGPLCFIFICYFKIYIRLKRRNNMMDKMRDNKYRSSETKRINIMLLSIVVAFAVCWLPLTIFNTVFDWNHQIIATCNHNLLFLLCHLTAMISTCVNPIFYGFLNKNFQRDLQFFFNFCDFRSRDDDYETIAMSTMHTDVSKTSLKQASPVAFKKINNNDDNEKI

T2: human Y5 receptor (Homo sapiens, UniProt Q15761)
T2 construct: expressed in transfected cells
T2 sequence (Q15761 1-445): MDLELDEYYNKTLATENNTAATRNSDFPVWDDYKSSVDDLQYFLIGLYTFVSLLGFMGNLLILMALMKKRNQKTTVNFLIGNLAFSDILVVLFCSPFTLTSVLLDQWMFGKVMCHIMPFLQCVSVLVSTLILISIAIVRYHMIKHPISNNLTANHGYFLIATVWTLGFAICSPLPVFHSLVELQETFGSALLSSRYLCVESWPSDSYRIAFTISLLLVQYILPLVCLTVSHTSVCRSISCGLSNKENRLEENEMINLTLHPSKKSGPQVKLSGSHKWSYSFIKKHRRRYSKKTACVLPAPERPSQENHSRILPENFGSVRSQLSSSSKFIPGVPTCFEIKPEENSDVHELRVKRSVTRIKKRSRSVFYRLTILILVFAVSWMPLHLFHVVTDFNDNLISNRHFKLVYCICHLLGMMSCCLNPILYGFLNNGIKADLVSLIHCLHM

T3: Y1 receptor (UniProt P25929 1-384, limits assumed)
T3 sequence (looked up): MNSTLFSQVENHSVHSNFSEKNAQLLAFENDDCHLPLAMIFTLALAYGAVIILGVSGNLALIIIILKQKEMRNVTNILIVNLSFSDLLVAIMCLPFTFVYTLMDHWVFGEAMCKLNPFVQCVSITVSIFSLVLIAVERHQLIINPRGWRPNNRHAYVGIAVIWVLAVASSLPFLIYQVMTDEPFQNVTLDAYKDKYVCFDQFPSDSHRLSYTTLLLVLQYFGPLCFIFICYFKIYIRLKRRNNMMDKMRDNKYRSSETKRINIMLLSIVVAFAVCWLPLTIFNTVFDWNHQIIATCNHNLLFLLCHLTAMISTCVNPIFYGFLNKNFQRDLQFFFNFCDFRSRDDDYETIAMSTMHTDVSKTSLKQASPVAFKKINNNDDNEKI

T4: Y2 receptor (UniProt P49146 1-381, limits assumed)
T4 sequence (looked up): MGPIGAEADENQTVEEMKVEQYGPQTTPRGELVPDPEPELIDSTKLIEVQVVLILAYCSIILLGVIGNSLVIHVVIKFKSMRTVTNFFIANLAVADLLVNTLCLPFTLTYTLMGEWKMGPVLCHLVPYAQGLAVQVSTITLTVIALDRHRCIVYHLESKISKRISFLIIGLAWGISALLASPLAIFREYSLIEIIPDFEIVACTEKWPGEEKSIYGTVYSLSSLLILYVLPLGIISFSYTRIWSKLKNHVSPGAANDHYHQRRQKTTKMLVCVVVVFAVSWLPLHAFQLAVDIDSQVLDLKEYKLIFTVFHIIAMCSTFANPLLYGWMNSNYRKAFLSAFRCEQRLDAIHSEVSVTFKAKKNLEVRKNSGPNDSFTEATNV

T5: human Y5 receptor (human, UniProt Q15761 1-445)
T5 sequence (looked up): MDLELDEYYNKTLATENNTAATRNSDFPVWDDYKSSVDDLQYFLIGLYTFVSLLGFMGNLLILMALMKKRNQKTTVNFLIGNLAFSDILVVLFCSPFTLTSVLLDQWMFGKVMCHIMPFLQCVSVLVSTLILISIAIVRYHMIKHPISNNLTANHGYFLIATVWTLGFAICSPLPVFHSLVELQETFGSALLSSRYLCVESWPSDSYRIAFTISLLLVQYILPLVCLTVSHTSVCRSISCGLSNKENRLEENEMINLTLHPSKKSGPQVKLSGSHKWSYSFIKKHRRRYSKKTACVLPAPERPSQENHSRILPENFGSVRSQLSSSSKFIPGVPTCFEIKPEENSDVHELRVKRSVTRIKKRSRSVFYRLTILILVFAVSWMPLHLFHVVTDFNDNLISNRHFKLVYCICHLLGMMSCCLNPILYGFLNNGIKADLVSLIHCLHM


What was measured:
[1] = molecular target: T1, Y1 receptor; assay: Assay (II) Y1 receptor ACTOne potency assay; type: cell-based
From the text: ACTOne™ is an easily scaleable cAMP biosensor HTS platform for measurement of Gs and Gi coupled 7™ receptor signalling from BD Biosciences (San Jose, Calif.). The cells express a biosensor developed around a modified rat olfactory cyclic nucleotide gated (CNG) calcium channel—a fairly non-discriminatory ion channel that responds to cAMP and cGMP. The CNG has been engineered to be cAMP selective and thus function as a cAMP responsive biosensor that signals through calcium or membrane potential responsive dyes.

[2] = molecular target: T2, human Y5 receptor; assay: Assay (III) Y5 receptor IPOne potency assay; type: cell-based
[3] = molecular target: T3, Y1 receptor; assay: cell-based or functional assay
[4] = molecular target: T4, Y2 receptor; assay: cell-based or functional assay
[5] = molecular target: T5, human Y5 receptor; assay: cell-based or functional assay

| Molecule | EC50 [1] [nM] | Receptor potency Y1/Y2 ratio ([1]; ratio of Y1 (Assay II) to Y2 (Assay I) receptor potency) | EC50 [2] [nM] | Receptor potency Y5/Y2 ratio ([2]; ratio of Y5 (Assay III) to Y2 (Assay I) receptor potency) | Receptor potency Y1 (Assay (II), ACTOne) [3] [nM] | Receptor potency Y2 (Assay (I), ACTOne) [4] [nM] | Receptor potency Y5 (Assay (III), IPOne) [5] [nM] |
| --- | --- | --- | --- | --- | --- | --- | --- |
| CC[C@H](C)[C@H](N)C(=O)N[C@@H](CCCNC(=N)N)C(=O)N1CCC[C@H]1C(=O)N[C@@H](CCC(=O)O)C(=O)N[C@@H](C)C(=O)N1CCC[C@H]1C(=O)NCC(=O)N[C@@H](CCC(=O)O)C(=O)N[C@@H](CC(=O)O)C(=O)N[C@@H](C)C(=O)N[C@@H](CO)C(=O)N1CCC[C@H]1C(=O)N[C@@H](CCC(=O)O)C(=O)N[C@@H](CCC(=O)O)C(=O)N[C@@H](CC(C)C)C(=O)N[C@@H](CCC(=O)O)C(=O)N[C@@H](CCCNC(=N)N)C(=O)N[C@@H](Cc1ccc(O)cc1)C(=O)N[C@@H](Cc1ccc(O)cc1)C(=O)N[C@@H](C)C(=O)N[C@@H](CO)C(=O)N[C@@H](CC(C)C)C(=O)N[C@@H](CCCNC(=N)N)C(=O)N[C@@H](Cc1c[nH]cn1)C(=O)N[C@@H](Cc1ccc(O)cc1)C(=O)N[C@@H](CC(C)C)C(=O)N[C@@H](CCC(N)=O)C(=O)N[C@@H](CCCCNC(=O)COCCOCCNC(=O)COCCOCCNC(=O)CC[C@H](NC(=O)CCCCCCCCCCCCCCCCC(=O)O)C(=O)O)C(=O)N[C@H](C(=O)N[C@H](C(=O)N[C@@H](CCCNC(=N)N)C(=O)N[C@@H](CCC(N)=O)C(=O)N[C@@H](CCCNC(=N)N)C(=O)N[C@@H](Cc1ccc(O)cc1)C(N)=O)[C@@H](C)O)C(C)C [SEQ ID NO: 39, N-epsilon30[2-(2-{2-[2-(2-{2-[(S)-4-Carboxy-4-(17-carboxyheptadecanoylamino)butyrylamino]ethoxy}ethoxy)acetylamino]ethoxy}ethoxy)acetyl][Arg4,Glu18,Gln29,Lys30]hPYY(3-36)] | ≥ 1000 | >3.6 | ≥ 1000 | >3.6 |  |  |  |
| IRPEAPGEDASPEELERYYASLRHYLQK([AEEA-AEEA-γGlu-C18 diacid])VTRQRY-NH2 |  |  |  |  | ≥ 1000 | 274 | ≥ 1000 |
